Earlier results on one compound are cited in patent US10947168B2, “Solvent systems for dicyandiamide and/or alkyl thiophosphoric triamide and use in agricultural applications” (RHODIA OPERATIONS, priority 2014, dated 2021).

Take `N#CNC(=N)N` [Dicyandiamide]: the solubility in water result is recorded as “about 41 g/l”.
